Data: patent US20170267750A1, “Method of Treating Ovarian and Renal Cancer Using Antibodies Against T Cell Immunoglobulin Domain and Mucin Domain 1 (TIM-1) Antigen” (Celldex Therapeutics, Inc., priority 2005, published 2017)
Counter-ions that a name gives are not always drawn.

Tests used:
[1] = system: IGROV1 ovarian carcinoma xenografts; experiment: Human ovarian carcinoma xenograft model (IGROV1) in athymic mice; type: in vivo, athymic mice (CD-1 nu/nu females)
Experimental: An in vivo study was performed to assess the potency and therapeutic efficacy of the antibody-drug conjugate, CR014-vcMMAE, against an established human IGROV-1 ovarian xenograft in athymic mice.
Test Animals: Five- to 6-week old athymic mice (CD-1 nu/nu females), used for human tumor xenografts, were obtained from Charles Rivers Laboratories (Wilmington, Del.). Animals were housed in specific pathogen-free conditions, according to the guidelines of the Association for Assessment and Accreditation of Laboratory Animal Care International (AAALAC International). Test animals were provided pelleted food and water ad libitum and kept in a room with conditioned ventilation (HVAC), temperature (22°±2° C.), relative humidity (55%±15%), and photoperiod (12 hr). All studies were carried out with approved institutional animal care and use protocols. Contract Research Organizations. Experiments in vivo were conducted at Southern Research Institute (Birmingham, Ala.).
Human Ovarian Carcinoma Xenograft Model. The tumor inhibitory activity of the CR014-MMAE immunoconjugate was measured in an anti-tumor xenograft model using athymic mice, according to published methods (Geran R I, Greenberg N H, Macdonald M M, Schumacher A M and Abbott B J (1972) Protocols for screening chemical agents and natural products against animal tumors and other biological systems. Cancer Chemother Rep 3:1-104).
Briefly, test animals were implanted subcutaneously by trocar with small fragments of the IGROV1 carcinoma (30-60 mg) excised from athymic mouse tumor donors. […]
The IGROV1 ovarian carcinoma was derived from a person in 1985, and was obtained from the American Type Culture Collection. The effects of treatment were monitored by repetitive tumor measurements across 2 diameters with Vernier calipers; tumor size (in mg) was calculated using a standard formula, (W^2×L)/2, assuming a specific gravity of 1.0. Tumor size and body weights were assessed twice weekly. […]

[2] = system: ACHN cells; experiment: Antibody mediated toxin killing clonogenic assay (saporin conjugated secondary antibody), ACHN; type: cell-based, human; conditions: EGFR mAb at 100 ng/mL with saporin secondary
Experimental: (§1) A clonogenic assay as described in the art was used to determine whether primary antibodies can induce cancer cell death when used in combination with a saporin toxin conjugated secondary antibody reagent. Kohls and Lappi, Biotechniques, 28(1):162-5 (2000).
(§2) ACHN and BT549 cells were plated onto flat bottom tissue culture plates at a density of 3000 cells per well. On day 2 or when cells reached ˜25% confluency, 100 ng/well secondary mAb-toxin (goat anti-human IgG-saporin; Advanced Targeting Systems; HUM-ZAP; cat. no. IT-22) was added. A positive control anti-EGFR antibody, mAb 2.7.2, mAb 2.59.2, or an isotype control mAb was then added to each well at the desired concentration (typically 1 to 500 ng/mL). On day 5, the cells were trypsinized, transferred to a 150 mm tissue culture dish, and incubated at 37° C. Plates were examined daily. On days 10-12, all plates were Giemsa stained and colonies on the plates were counted. Plating efficiency was determined by comparing the number of cells prior to transfer to 150 mm plates to the number of colonies that eventually formed.
(§3) The percent viability in antigen positive ACHN and antigen negative BT549 cell lines are presented in FIG. 4 and FIG. 5 respectively.

[3] = system: BT549 cells; experiment: Antibody mediated toxin killing clonogenic assay (saporin conjugated secondary antibody), BT549; type: cell-based, human; conditions: EGFR mAb at 100 ng/mL with saporin secondary
Experimental: as §1, §2, §3

**Q.** For CC(=O)O[C@H]1C(=O)[C@@]2(C)[C@H]([C@H](OC(=O)c3ccccc3)[C@]3(O)C[C@H](OC(=O)[C@H](O)[C@@H](NC(=O)c4ccccc4)c4ccccc4)C(C)=C1C3(C)C)[C@]1(OC(C)=O)CO[C@@H]1C[C@@H]2O [Paclitaxel, paclitaxel], which “re-growth of tumors during the observation period” value ([1]; 101 days after the commencement of treatment) is on record?
**A.** The value was “not observed”.

**Q.** What about the anti-tumor effect ([1]; paclitaxel i.v., 24 mg/kg, q2d×4 (MTD)) of the same compound?
**A.** Its anti-tumor effect is “significant tumor growth inhibition”.

**Q.** How did the anti-tumor effect ([1]; vinblastine sulfate i.v., 1.7 mg/kg, q4d×4 (MTD)) turn out when CC[C@]1(O)C[C@@H]2CN(CCc3c([nH]c4ccccc34)[C@@](C(=O)OC)(c3cc4c(cc3OC)N(C)[C@H]3[C@@](O)(C(=O)OC)[C@H](OC(C)=O)[C@]5(CC)C=CCN6CC[C@]43[C@@H]65)C2)C1 [Vinblastine, vinblastine sulfate] was run?
**A.** Its anti-tumor effect is “very slight, but not significant, anti-tumor effect”.

**Q.** O=c1[nH]cc(F)c(=O)[nH]1 [5-FU, 5 Fluorouracil, reference compound] was tested. Which “killing in clonogenic assay (controls)” value [2] did it give?
**A.** Its value is “almost complete killing”.

**Q.** What about the “killing in clonogenic assay (controls)” value [3] of the same compound?
**A.** Its value is “almost complete killing”.
